In patent publication US20260207560A1, “PLURALITY OF GRANULES” (priority 2022, published 2026):
≈ marks a conversion by molar mass, not a printed value. Where “and” joins values, the source holds several entries; their conditions need not be identical. Identical values can stand only once.

Tests used:
[1] = Solubility of active ingredient in volatile solvents (visual); conditions: for solubility: thermodynamic from solid, Solubility of the active ingredient; for solubility / Solubility of the active ingredient: visual; for Solubility of the active ingredient: listed as active ingredient
Procedure: The active ingredient was dissolved in different solvents and the stability of the solution was assessed after being held overnight at ambient temperature. The following solvents were studied: ethanol, 50:50 EtOH:Water, 0.1 M HCl, pH 3 citric acid buffer, 5% SLS aq. and 5% Tween 80 aq.
This study involved assessing the solubility and the chemical stability of the active ingredient in different volatile solvents for use in wet granulation. The solubility was measured visually after mixing (by the disappearance of undissolved solids). Increasing quantities of each solvent were added as detailed above.

[2] = in vivo; cited from earlier work
[3] = Stability of active ingredient in volatile solvents, 20-28 hours at ambient (UPLC assay and impurities); conditions: for Assay (as % of nominal): vial replicates
Procedure: Note the incubation for the stability studies were all performed in a similar way: • All were put into 4 mL amber glass vials. • The Initial samples were not analysed as soon as sampled but instead were frozen at −20° C. until the point of analysing the incubated samples (e.g after 28 days at 25, 40 or 50° C.) to avoid degradation of the active ingredient.
Chemical stability was determined by assay (results in Table 8) and quantification of potential active ingredient related substances (shown in
Table 9). […] The objective was to establish whether any active ingredient-related substances might be increasing as a result of the ambient hold.

[4] = 0.1 M HCl, 24 hour, listed as active ingredient
[5] = 0.1 M HCl, Initial, listed as active ingredient
[6] = 5% SLS aq., 24 hour, listed as active ingredient

Compound: CCS(=O)(=O)Nc1ccc2c(c1)nc(C(C)(C)C)n2CC1CCC(F)(F)CC1 [Compound I, N-(2-(tert-butyl)-1-((4,4-difluorocyclohexyl)methyl)-1H-benzimidazol-5-yl)ethanesulfonamide]
- solubility ([1]; 0.1 M HCl, simulated gastric fluid): 7000 µg/mL (≈ 16.9 mM)
- Solubility of the active ingredient ([1]; 0.1 M HCl): > 7000 µg/mL
- Time to dissolve ([1]; 5% SLS aq., 0.6 mg/mL): 70 min
- Time to dissolve (DND = did not dissolve) ([1]; 5% SLS aq., 3 mg/mL): DND
- Time to dissolve (DND = did not dissolve) ([1]; 5% SLS aq., 7 mg/mL): DND
- solubility ([1]; 5% Tween 80 aq., aqueous with cosolvent or surfactant or cyclodextrin, 5% Tween 80): < 600 µg/mL
- Time to dissolve (DND = did not dissolve) ([1]; 5% Tween 80 aq., 0.6 mg/mL): DND
- Time to dissolve (DND = did not dissolve) ([1]; 5% Tween 80 aq., 3 mg/mL): DND
- Time to dissolve (DND = did not dissolve) ([1]; 5% Tween 80 aq., 7 mg/mL): DND
- solubility ([1]; 50:50 EtOH:water, aqueous with cosolvent or surfactant or cyclodextrin, 50:50 EtOH:water): < 600 µg/mL
- Time to dissolve (DND = did not dissolve) ([1]; 50:50 EtOH:water, 0.6 mg/mL): DND
- Time to dissolve (DND = did not dissolve) ([1]; 50:50 EtOH:water, 3 mg/mL): DND
- Time to dissolve (DND = did not dissolve) ([1]; 50:50 EtOH:water, 7 mg/mL): DND
- solubility ([1]; aqueous 5% SLS, aqueous with cosolvent or surfactant or cyclodextrin): > 600 µg/mL
- solubility ([1]; ethanol, organic solvent or mixture): 7000 µg/mL (≈ 16.9 mM)
- Solubility of the active ingredient ([1]; ethanol): > 7000 µg/mL
- solubility ([1]; pH 3 citric acid buffer, pH 3, aqueous buffer, pH 3 citric buffer): > 600 µg/mL
- Time to dissolve ([1]; pH 3 citric acid buffer, 0.6 mg/mL): 180 min
- Time to dissolve (DND = did not dissolve) ([1]; pH 3 citric acid buffer, 3 mg/mL): DND
- Time to dissolve (DND = did not dissolve) ([1]; pH 3 citric acid buffer, 7 mg/mL): DND
- CNS-psychoactive effects [2]: does not cause CNS-psychoactive effects
- Effect on appetite [2]: stimulate appetite in a dose-dependent manner
- Impurity peak area, RRT 0.38 ([3]; 0.1 M HCl, 24 hour): 0.07 % of Total
- Impurity peak area, RRT 0.61 ([3]; 0.1 M HCl, 24 hour): <0.05 % of Total
- Impurity peak area, RRT 0.83 ([3]; 0.1 M HCl, 24 hour): 0.11 % of Total
- Impurity peak area, RRT 0.85 ([3]; 0.1 M HCl, 24 hour): 0.07 % of Total
- Impurity peak area, RRT 0.92 ([3]; 0.1 M HCl, 24 hour): 0.09 % of Total
- Impurity peak area, RRT 0.62 [3, 4]: <0.05 % of Total and 0.05 % of Total
- Impurity peak area, RRT 0.84* [3, 4]: 0.27 % of Total and 0.34 % of Total
- Impurity peak area, RRT 0.86^$ (PDA spectra unrelated to the active ingredient) [3, 4]: <0.05 % of Total and 0.05 % of Total
- Impurity peak area, RRT 0.98* (first row) [3, 4]: 0.24 % of Total and 0.22 % of Total
- Impurity peak area, RRT 0.98* (second row) [3, 4]: 0.12 % of Total and 0.13 % of Total
- Impurity peak area, RRT 1.04* [3, 4]: 0.05 % of Total and <0.05 % of Total
- Impurity peak area, RRT 1.23* [3, 4]: 0.16 % of Total and 0.15 % of Total
- Impurity peak area, RRT 1.24* [3, 4]: <0.05 % of Total and 0.05 % of Total
- Impurity peak area, RRT 1.35* [3, 4]: 0.07 % of Total and 0.06 % of Total
- Impurity peak area, RRT 1.36* [3, 4]: <0.05 % of Total and 0.05 % of Total
- Impurity peak area, Total [3, 4]: 1.00 % of Total and 1.44 % of Total
- Impurity peak area, Total excluding artifact [3, 4]: 1.00 % of Total and 1.16 % of Total
- Assay (as % of nominal), Mean ([3]; 0.1M HCl, 24 hours ambient): 106.7 % of nominal
- Assay (as % of nominal) ([3]; 0.1M HCl, 24 hours ambient, listed as active ingredient): 107.7 % of nominal and 105.4 % of nominal
- Assay (as % of nominal), Mean ([3]; 0.1 M HCl, Initial): 114.4 % of nominal
- Impurity peak area, RRT 0.41 ([3]; 0.1 M HCl, Initial): <0.05 % of Total
- Impurity peak area, RRT 0.98* (first row) ([3]; 0.1 M HCl, Initial): 0.22 % of Total
- Impurity peak area, RRT 0.98* (second row) ([3]; 0.1 M HCl, Initial): 0.12 % of Total
- Impurity peak area, RRT 1.04* ([3]; 0.1 M HCl, Initial): <0.05 % of Total
- Impurity peak area, RRT 1.24* ([3]; 0.1 M HCl, Initial): <0.05 % of Total
- Impurity peak area, RRT 0.38 [3, 5]: 0.10 % of Total and 0.08 % of Total
- Impurity peak area, RRT 0.61 [3, 5]: 0.13 % of Total and 0.08 % of Total
- Impurity peak area, RRT 0.62 [3, 5]: 0.15 % of Total and 0.09 % of Total
- Impurity peak area, RRT 0.84* [3, 5]: 0.31 % of Total and 0.26 % of Total
- Impurity peak area, RRT 0.85 [3, 5]: <0.05 % of Total and 0.08 % of Total
- Impurity peak area, RRT 0.92 [3, 5]: 0.18 % of Total and 0.14 % of Total
- Impurity peak area, RRT 1.23* [3, 5]: 0.22 % of Total and 0.23 % of Total
- Impurity peak area, RRT 1.35* [3, 5]: 0.05 % of Total and 0.06 % of Total
- Impurity peak area, RRT 1.36* [3, 5]: 0.05 % of Total and 0.06 % of Total
- Impurity peak area, Total [3, 5]: 2.00 % of Total and 1.47 % of Total
- Impurity peak area, Total excluding artifact [3, 5]: 1.15 % of Total and 1.17 % of Total
- Assay (as % of nominal) ([3]; 0.1M HCl, Initial, listed as active ingredient): 100.6 % of nominal and 127.9 % of nominal
- Impurity peak area, RRT 0.41 ([3]; 5% SLS aq., 24 hour): <0.05 % of Total
- Impurity peak area, RRT 0.62 ([3]; 5% SLS aq., 24 hour): 0.08 % of Total
- Impurity peak area, RRT 0.85 ([3]; 5% SLS aq., 24 hour): NBD
- Impurity peak area, RRT 0.92 ([3]; 5% SLS aq., 24 hour): 0.05 % of Total
- Impurity peak area, RRT 0.98* (first row) ([3]; 5% SLS aq., 24 hour): 0.24 % of Total
- Impurity peak area, RRT 1.04* ([3]; 5% SLS aq., 24 hour): 0.06 % of Total
- Impurity peak area, RRT 1.24* ([3]; 5% SLS aq., 24 hour): <0.05 % of Total
- Impurity peak area, RRT 1.36* ([3]; 5% SLS aq., 24 hour): <0.05 % of Total
- Impurity peak area, RRT 0.38 [3, 6]: 0.10 % of Total and 0.07 % of Total
- Impurity peak area, RRT 0.61 [3, 6]: 0.07 % of Total and 0.06 % of Total
- Impurity peak area, RRT 0.83 [3, 6]: 0.30 % of Total and 0.16 % of Total
- Impurity peak area, RRT 0.84* [3, 6]: 0.32 % of Total and 0.30 % of Total
- Impurity peak area, RRT 0.86^$ (PDA spectra unrelated to the active ingredient) [3, 6]: 0.05 % of Total and 0.07 % of Total
- Impurity peak area, RRT 0.98* (second row) [3, 6]: 0.13 % of Total and 0.12 % of Total
- Impurity peak area, RRT 1.23* [3, 6]: 0.06 % of Total and 0.07 % of Total
- Impurity peak area, RRT 1.35* [3, 6]: 0.07 % of Total and 0.06 % of Total
- Impurity peak area, Total [3, 6]: 1.53 % of Total and 1.34 % of Total
- Impurity peak area, Total excluding artifact [3, 6]: 0.93 % of Total and 0.90 % of Total
- Assay (as % of nominal), Mean ([3]; 5% SLS aq., 24 hours ambient): 100.8 % of nominal
- Assay (as % of nominal) ([3]; 5% SLS aq., 24 hours ambient, listed as active ingredient): 99.4 % of nominal and 102.3 % of nominal
